Reference: PMC8912008, “Pharmacokinetic Study of Withanosides and Withanolides from Withania somnifera Using Ultra-High Performance Liquid Chromatography-Tandem Mass Spectrometry (UHPLC-MS/MS)” (Molecules, 2022)

Tests used:
[1] = in vitro; settings: rat
Source text: The everted intestinal segment was mounted on the apparatus and setting it in the beaker. The internal surface of the glass tubes serves as the mucosal compartment, and the beaker serves as the serosal compartment. Animals were humanly sacrificed by cervical dislocation followed by a midline incision. The abdominal cavity was opened carefully, and the intestine was maneuvered to identify the ileocecal junction. A 7 cm long intestinal segment distant to the ileocecal junction (5–6 cm) was excised by carefully removing the mesenteric attachments without causing any damage to the intestinal architecture. The segment was cleaned using the Kreb’s Ringer Bicarbonate (KRB) buffer medium and was stored in KRB buffer in a petri dish. The cleaned segment was then everted gently using a glass rod. Finally, a 3 cm long intestinal segment was used to perform the permeability study [49, 50].
The tissue was mounted on the apparatus and was placed in a 1000 mL beaker containing 2 mg/mL WSE suspension. The intestinal segment was perfused from the mucosal end using the KRB buffer. The apparatus (beaker with tissue) was placed on the magnetic stirrer followed by continuous stirring using a magnetic bead at 25 rpm to mimic the peristaltic movement of the stomach at 37 °C with appropriate aeration. The sample collection at different time points was carried out every 5 min interval for 1 h. The collected samples were further diluted and analyzed using LC-MS/MS.
The sample was diluted to 20-fold in ACN and injected 2 µL into LC-MS/MS. Samples were stored at −20 °C until analysis using validated UHPLC-MS/MS. The permeability was obtained by plotting the cumulative amount transported (ng) across the gut sac against time (second).
The calculation of apparent permeability (Papp) was carried out using the following Equation (1):Papp = dQ/dt × 1/A × C0(1) where Papp: apparent permeability co-efficient; dQ/dt: the cumulative amount of drug (Q) appearing in the acceptor (serosal) compartment as a function of time and was obtained from the slope of the linear portion of the amount transported-versus-time plot. A: Surface area of the intestine (cm^2) (0.18 cm as radius) and C0: Initial concentration of drug in the donor compartment (ng/mL).

[2] = Stability of analytes in rat plasma; settings: n = 6; for Processed sample stability (% ± SD): processed rat plasma sample, 4 h; for Bench top Stability (% ± SD) / Autosampler stability (% ± SD) / Freeze-thaw stability (% ± SD): rat plasma; for Bench top Stability (% ± SD): 25 °C for 4 h; for Freeze-thaw stability (% ± SD): three freeze/thaw cycles
Protocol: Six replicates of quality control samples were analyzed at four concentration levels (LLOQ, LQC, MQC, and HQC; n = 6) on the same day (intra-day) and repeated for three consecutive days (inter-day) (Table S2). The precision was expressed as the relative standard deviation (% RSD), and accuracy was reported as the relative error (% RE). Later, these samples were analyzed for stability testing under the following conditions: three complete freeze/thaw cycles (−80 °C to 25 °C), long-term sample storage (−80 °C for 60 days), processed sample, and bench-top (25 °C for 4 h).

[3] = in vivo; settings: rat, in vivo, po, 500 mg/kg
Source text: It is known that the hydrophobic interior surface of the cell membrane (lipid bilayer) serves as a barrier to the passage of polar and high molecular weight molecules.
Food pellets and tap water were provided ad libitum throughout the experimentation. The protocol to carry out in vivo pharmacokinetics was approved by The Institutional Animal Ethics Committee (IAEC) of Crystal Biological Solution, Pune, Maharashtra, India. […] Eighteen animals were subdivided into three groups, (n = 6) animals in each group. Withania somnifera extract suspension was prepared in water for oral administration, and the dose was calculated based on the acute oral toxicity study (500 mg/kg; single dose). […] The separated plasma samples were transferred into Eppendorf tubes and stored at −80 °C in a deep freezer until analysis. Ten pharmacokinetic parameters were determined using PK solver 2.0, USA [45, 46, 47]. The maximum observed concentration (Cmax) and maximum observed time (Tmax) were calculated directly from the experimental results. The elimination rate constant (Kel) was calculated from the slope of the linear regression of Log concentrations as a function of time. […] The area under the curve (AUC(0–t)) was calculated from the linear curve following the trapezoidal rule, while AUC(0–∞) was calculated by adding Ct/λ, with Ct being the final measurable concentration. Oral clearance (Cl/F) was obtained from the equation Cl/F = dose/AUC(0–∞). Mean residence time (MRT) was calculated as AUMC(0–∞)/AUC(0–∞), where AUMC(0–∞) is the area under the first moment curve. […] The pharmacokinetic parameters as the average of six rats ± SD. The mean plasma concentration Vs. time curve (mean ± SD) was prepared using Prism 8.2, (GraphPad, San Diego, CA, USA).

[4] = tested on: chromosomes
Protocol: After completing the study, chromosomal slides were observed under 100×, and the % aberrated chromosomes were calculated.

[5] = high QC (nominal 200.50-201.50 ng/mL)
[6] = low QC (nominal 10.05-10.50 ng/mL)

Compound | Papp at 1 h, 2 mg/mL [1] | Processed sample stability (% ± SD) [2, 5] | Processed sample stability (% ± SD) [2, 6] | Bench top Stability (% ± SD) [2, 5] | Bench top Stability (% ± SD) [2, 6] | Autosampler stability (% ± SD) [2, 5] | Autosampler stability (% ± SD) [2, 6] | Freeze-thaw stability (% ± SD) [2, 5] | Freeze-thaw stability (% ± SD) [2, 6] | also measured
CC1=C(C)C(=O)O[C@@H]([C@@H](C)[C@H]2CC[C@H]3[C@@H]4[C@@H]5O[C@@H]5[C@@]5(O)CC=CC(=O)[C@]5(C)[C@H]4CC[C@]23C)C1 [Withanolide B] | 0.131 nm/s | 95.01 ± 5.83% | 113.48 ± 47.73% | 96.83 ± 6.66% | 95.51 ± 5.04% | 97.26 ± 3.36% | 98.84 ± 4.54% | 93.48 ± 6.55% | 116.31 ± 36.76% | –
CC1=C(C)C(=O)O[C@@H]([C@@H](C)[C@H]2CC[C@H]3[C@@H]4CC=C5C[C@@H](O[C@@H]6O[C@H](CO[C@@H]7O[C@H](CO)[C@@H](O)[C@H](O)[C@H]7O)[C@@H](O)[C@H](O)[C@H]6O)C[C@H](O)[C@]5(C)[C@H]4CC[C@]23C)C1 [Withanoside V] | 0.343 nm/s | 90.47 ± 6.50% | 134.85 ± 90.10% | 91.74 ± 8.97% | 99.58 ± 8.68% | 111.25 ± 4.54% | 109.83 ± 8.35% | 99.38 ± 6.58% | 105.13 ± 6.95% | –
CC1=C(CO)C(=O)O[C@@H]([C@@H](C)[C@H]2CC[C@H]3[C@@H]4CC=C5C[C@@H](O[C@@H]6O[C@H](CO[C@@H]7O[C@H](CO)[C@@H](O)[C@H](O)[C@H]7O)[C@@H](O)[C@H](O)[C@H]6O)C[C@H](O)[C@]5(C)[C@H]4CC[C@]23C)C1 [Withanoside IV] | 1.42 nm/s | 101.10 ± 9.54% | 104.41 ± 4.84% | 100.34 ± 10.45% | 104.41 ± 4.84% | 111.61 ± 0.88% | 108.21 ± 2.00% | 98.95 ± 5.47% | 104.78 ± 5.59% | AUC(0-inf) ([3]; male, Sprague Dawley): 0.0229 ± 0.00573 µg·h/mL; AUC(0-t) ([3]; male, Sprague Dawley): 0.014 ± 0.0037 µg·h/mL; Cmax ([3]; male, Sprague Dawley): 0.0138 ± 0.00373 µg/mL; MRT inf ([3]; male, Sprague Dawley): 2.08 ± 0.394 h; Tmax ([3]; male, Sprague Dawley): 0.75 h; half-life ([3]; male, Sprague Dawley): 1.1 ± 0.272 h; k el ([3]; male, Sprague Dawley): 0.000182 s⁻¹; Cl/F (oral clearance) [3]: 0.176 ± 0.037; Vdapp (mean apparent volume of distribution) [3]: 0.278 ± 0.083; oral clearance (Cl/F) [3]: 0.176 ± 0.037 (mg/kg)/(ng/mL)/h
O=P1(N(CCCl)CCCl)NCCCO1 (stereo not drawn) [Cyclophosphamide] | – | – | – | – | – | – | – | – | – | % Aberration [4]: 52%; MI mitotic index [4]: 52; RCG (%) relative cell growth [4]: 112%; RMI (%) relative mitotic index [4]: 85%; Ratio with Negative [4]: 10.40
